Results reported in PMC8272242 (Molecules, 2021).

Assay: thermal stability during DSC measurements (FTIR-ATR and weight before and after)
Type: physicochemical
Settings: across the range of temperatures used in the DSC study (solid and melt)
Experimental: No polymorphs or solvates have so far been reported. However, in order to confirm that no crystal phase or pseudo-polymorphic transitions occurred during solubility measurements, the sediments collected after flask-shake experiments were analyzed using DSC and FTIR-ATR techniques. The results of these measurements are summarized in supplementary materials in Figures S1 and S2. The solvate formation can be identified by the absorption band shifts on the IR spectra. With DSC thermograms, the formation of a new crystal form would be associated with polymorphic transformations or solvate degradation found prior to the melting peak. Both IR spectra and DSC thermograms recorded for sediments were similar to pure phenacetin. […] As documented in Figure 1, both spectra are nearly identical as indicated by the differential plot.
It is notable that the temperature trends are linear, and it is reasonable to expect that a change of heat capacity values associated with melting ∆Cp would adopt a linear temperature relationship.
The calibration was performed using zinc and indium standards.

thermal stability: stable
SMILES: CCOc1ccc(NC(C)=O)cc1 [phenacetin, N-(4-ethoxyphenyl)acetamide]
